Measured values published in patent US7456154B2 (priority 2001, dated 2008).

Tests used:
EAMG rats [1] = experiment: Electromyography: CMAP ratio under repetitive 3 Hz nerve stimulation in EAMG rats; type: in vivo, rat; conditions: for Effect on CMAP decline / muscle function in EAMG rats: comparable amounts, Table 1; for CMAP ratio (5th vs. 1st amplitude): average ± SEM; for Effect of oral administration on CMAP decline: oral gavage, 1000 μg/kg pyridostigmine, CMAP 1, 5, 24 h
EAMG rats [2] = experiment: Repeated daily treatment of EAMG rats (5 days and 1 month): survival, body weight, status; type: in vivo, rat
Excerpt: As shown in Example 5, unlike anti-cholinesterases, rEN101 afforded long-term maintenance of stable CMAP. This further enabled the inventors to test whether the cholinergic imbalance contributes to the physiological deterioration that is characteristic of EAMG. Rats were first treated with rEN101 once a day for 5 days, CMAPs being determined prior to each treatment. Both the efficacy of rEN101 in retrieving normal CMAP and its capacity to reduce the inter-animal variability in CMAP values reached similar levels to those of pyridostigmine (FIGS. 11A and 11B). However, the onset of response to pyridostigmine was more rapid (Table 1), while that observed with rEN101 was longer-lasting. Daily oral or i.v administration of rEN101 stabilized CMAPs over the entire course of treatment (FIG. 11B). In contrast, the effect of pyridostigmine wore off within several hours, causing pronounced fluctuations in muscle status (Table 1 and FIG. 11). Among the animals treated daily with pyridostigmine, 5 out of 6 died within the 5 day experimental course. In contrast, 6 out of 8 animals treated once-a-day with rEN101 via o.g. survived the full 5 day period. This conspicuous difference might reflect the susceptibility of EAMG rats to repeated anesthesia and CMAP measurements. In order to avoid these additional stresses and evaluate the effect of the antisense treatment on EAMG pathophysiology, the inventors subjected groups of moderately sick animals to 1 month of daily oral treatment with minimal interference. […] One way repeated measures ANOVA yielded P<0.05 for all other measures (AS vs. other treatments at 4 weeks). The effect of rEN101 on clinical symptoms was also corroborated by body weight changes. Rats treated with saline and Mestinon treated groups lost 13.5 and 11 g/animal, respectively, whereas animals treated with rEN101 gained, on average, 13 g during the treatment period. Thus, daily rEN101 administration promoted long-term change in the course of EAMG in rats with moderate to severe symptoms, under the same conditions in which untreated or pyridostigmine-treated animals deteriorated.

AChE-R mRNA = experiment: In situ hybridization of AChE-R mRNA in rat muscle; type: in vivo; conditions: healthy and EAMG rats
Method: In situ hybridization: Tissues were fixed in 4% paraformaldehyde and cut into 7 μm paraffin embedded sections. Spinal cord sections were deparaffinized, rehydrated using serial ethanol dilutions and permeabilized with proteinase K (10 μg/ml at room temp.). Slides were exposed to 5′ biotinylated, fully 2′-oxymethylated AChE-R or AChE-S-specific 50-mer cRNA probes complementary to human ACHE pseudo-intron 4 or exon 6, respectively [Grisaru et al. (2001) id ibid.]. Hybridization was performed overnight at 52° C. in hybridization mixture containing 10 μg/ml probe, 50 μg/ml yeast tRNA, 50 μg/ml heparin and 50% formamide in 375 mM Na chloride, 37.5 mM Na citrate, pH 4.5. For monkey sections, the probe was constructed according to the human AChE-R sequence; for rat sections, according to the mouse sequence. Slides were washed to remove non-hybridized probe, blocked with 1% skim milk containing 0.01% Tween-20 and 2 mM levamisole, an alkaline phosphatase inhibitor used to suppress non-specific staining and incubate with streptavidin-alkaline phosphatase (Amersham Pharmacia). Fast Red™ substrate (Roche Diagnostics) was used for detection. DAPI staining (Sigma Chemical Co., St. Louis, Mo., USA) served to visualize nuclei. Microscope images were analyzed with Image Pro Plus 4.0 (Media Cybernetics) software. […]

[3] = intravenous, EAMG rats, 0 h, 50 μg/Kg
[4] = intravenous, EAMG rats, 1 h, 50 μg/Kg
[5] = intravenous, EAMG rats, 5 h, 50 μg/Kg
[6] = intravenous, EAMG rats, 24 h, 50 μg/Kg
[7] = oral, EAMG rats, 0 h, 50 μg/Kg oligonucleotide, 1000 μg/Kg pyridostigmine
[8] = oral, EAMG rats, 1 h, 50 μg/Kg oligonucleotide, 1000 μg/Kg pyridostigmine
[9] = oral, EAMG rats, 5 h, 50 μg/Kg oligonucleotide, 1000 μg/Kg pyridostigmine
[10] = oral, EAMG rats, 24 h, 50 μg/Kg oligonucleotide, 1000 μg/Kg pyridostigmine

5′-GGGAGAGGAGGAGGAAGAGG-3′ [rEN102]
Effect on CMAP decline / muscle function in EAMG rats (EAMG rats [1]): induced similar rectification of CMAP decline | CMAP ratio (5th vs. 1st amplitude) (EAMG rats [1]; [3]): 0.85 ± 0.06 | CMAP ratio (5th vs. 1st amplitude) (EAMG rats [1]; [4]): 1.04 ± 0.01 | CMAP ratio (5th vs. 1st amplitude) (EAMG rats [1]; [5]): 0.98 ± 0.03 | CMAP ratio (5th vs. 1st amplitude) (EAMG rats [1]; [6]): 1.00 ± 0.01 | Effect of oral administration on CMAP decline (EAMG rats [1]; 50 μg/Kg oligonucleotide): active in reversing CMAP decline | CMAP ratio (5th vs. 1st amplitude) (EAMG rats [1]; [7]): 0.82 ± 0.02 | CMAP ratio (5th vs. 1st amplitude) (EAMG rats [1]; [8]): 0.86 ± 0.04 | CMAP ratio (5th vs. 1st amplitude) (EAMG rats [1]; [9]): 0.96 ± 0.02 | CMAP ratio (5th vs. 1st amplitude) (EAMG rats [1]; [10]): 0.95 ± 0.03

CN(C)C(=O)Oc1ccc[n+](C)c1 [pyridostigmine, reference compound]
Animals that died within the 5 day experimental course (EAMG rats [2]; EAMG rats treated daily, with repeated anesthesia and CMAP measurements): 5 out of 6 | Body weight lost during the treatment period (EAMG rats [2]; EAMG rats, 1 month daily oral treatment): 11 g/animal | Effect of oral administration on CMAP decline (EAMG rats [1]; 50 μg/Kg oligonucleotide): restored CMAP for up to several hours | CMAP ratio (5th vs. 1st amplitude) (EAMG rats [1]; [7]): 0.90 ± 0.01 | CMAP ratio (5th vs. 1st amplitude) (EAMG rats [1]; [8]): 0.98 ± 0.01 | CMAP ratio (5th vs. 1st amplitude) (EAMG rats [1]; [9]): 0.96 ± 0.02 | CMAP ratio (5th vs. 1st amplitude) (EAMG rats [1]; [10]): 0.87 ± 0.02 | CMAP ratio 24 h following single oral administration (EAMG rats [1]; single oral dose, rEN101 50 μg/kg, pyridostigmine 1000 μg/kg): returned to the declining baseline

CN(C)C(=O)Oc1cccc([N+](C)(C)C)c1 [neostigmine bromide, reference compound]
CMAP after treatment (EAMG rats [1]; 75 μg/kg i.p., EAMG rats): 107.4 % of the first evoked potential | Duration of effect on CMAP (EAMG rats [1]; 75 μg/kg i.p., EAMG rats): 2 h | Onset of effect on CMAP after injection (EAMG rats [1]; 75 μg/kg i.p., EAMG rats): 15 min | CMAP after treatment relative to untreated level (EAMG rats [1]; 75 μg/kg i.p., EAMG rats, untreated 87.6% of first evoked potential): over 120 % of this level

5′-GGAGAAGGAGGAGGAGAGGG-3′ (chemistry not given here) [r-invEN102, reference compound]
Effect on CMAP decline / muscle function in EAMG rats (EAMG rats [1]): did not improve muscle function | CMAP ratio (5th vs. 1st amplitude) (EAMG rats [1]; [3]): 0.89 ± 0.02 | CMAP ratio (5th vs. 1st amplitude) (EAMG rats [1]; [4]): 0.89 ± 0.03 | CMAP ratio (5th vs. 1st amplitude) (EAMG rats [1]; [5]): 0.89 ± 0.02 | CMAP ratio (5th vs. 1st amplitude) (EAMG rats [1]; [6]): 0.90 ± 0.02 | Effect of oral administration on CMAP decline (EAMG rats [1]; 50 μg/Kg oligonucleotide): had no significant effect | CMAP ratio (5th vs. 1st amplitude) (EAMG rats [1]; [7]): 0.78 ± 0.06 | CMAP ratio (5th vs. 1st amplitude) (EAMG rats [1]; [8]): 0.86 ± 0.05 | CMAP ratio (5th vs. 1st amplitude) (EAMG rats [1]; [9]): 0.86 ± 0.05 | CMAP ratio (5th vs. 1st amplitude) (EAMG rats [1]; [10]): 0.81 ± 0.08 | AChE-R mRNA labeling in muscle (AChE-R mRNA): unaffected
